{"source": "patent US20130267571A1", "about": "“TERPENOID ANALOGUES AND USES THEREOF FOR TREATING NEUROLOGICAL CONDITIONS” (NeuroQuest Inc., priority 2010, published 2013)", "key": {"[1]": {"tested_on": "voltage-gated Na+ channels", "test": "Sodium (Na+) channel analysis in rat DRG neurons using whole cell patch-clamp", "format": "cell-based", "conditions": "Na+ currents in isolated rat DRG neurons, 3 min in presence of drug, read-out: IC50 range", "method": "Isolated DRG neurons were suspended in primary neuron basal media and placed on glass coverslips for incubation in humidified atmosphere of 5% CO2 at 37° C. Coverslips carrying cells was transferred to the bath of an inverted microscope (Zeiss), continuously perfused with oxygenated artificial cerebro-spinal fluid (ACSF) containing (in mM) 124 NaCl, 2.5 KCl, 2 CaCl2, 1 MgSO4, 25 NaHCO3, 1 NaH2PO4, and 10 glucose, at a rate of 2-3 ml/min. Recording of whole-cell membrane currents were made at room temperature. Recording pipette (4-6 MS2) was filled with internal solution containing (in mM) 145 K-gluconate, 5 NaCl, 1 MgCl2, 0.2 EGTA, 10 HEPES, 2 Mg-ATP, 0.1 Na-GTP, and 10 phosphocreatine. To isolate Na^+ currents, DRG neurons were superfused with ACSF containing tetraethylammonium chloride (TEA) 5 mM, cesium chloride (CsCl) 100 μM and cadmium chloride (CdCl) 1 mM, to block potassium and calcium currents. NQ compounds were freshly dissolved in ASCF containing TEA, CsCl and CdCl, prior application via the bath.\nFor recording Na^+ currents, cells were held at −60 mV before applying a conditioning hyperpolarizing step (50 ms) to −90 mv to reactivate the voltage-gated Na^+ channels. The conditioning pulse was followed by depolarizing (150 ms) test pulses to 50 mV in 10 mV increments. Na^+ currents were recorded in absence, after 3 min in presence of the drugs and after a recovery time of 3 min."}, "zebrafish embryos": {"tested_on": "zebrafish embryos", "test": "Zebrafish response (anaesthesia) assay, touch response/swim behaviour", "format": "in vivo", "conditions": "Danio rerio, 1.5 h; complete anaesthesia (scale 1) in 50% of AB wild type embryos (54 hpf), 90 min at 28° C.", "description": "Briefly, the ZEA assay involves applying essential oils, fractions or individual compounds to developmentally staged zebrafish embryos followed by monitoring of embryonic touch response/swim behaviour and evaluation of the dose response relationship for each substance. Using a four point scale to describe the embryonic behaviours (Table 4), initial analysis focused on monitoring and recording these changes and evaluating the level of bioactivity. The effective concentration to generate complete anaesthesia in 50% of the embryos (EC50), were evaluated as follows:\nCompounds are tested on developmentally staged AB “wild type” zebrafish embryos (54 hpf+/−2 hpf) at concentrations ranging between 10 and 400 μM.\nEach compound is diluted in a 95% ethanol or DMSO carrier to create a working stock solution from which appropriate dilutions are made in standard embryo E3 media.\n1000 μl of each concentration or appropriate carrier control are added to 10 wild type AB embryos in a single well of a 24 well plate, in duplicate.\nThe embryos are incubated for 90 min at 28° C. (optimal temperature for embryonic growth) in the diluted compound.\nA four point scale (Table 4) is used to evaluate the touch response and swim behaviour for each embryo in all wells.\nThe effectiveness of the compound will be based on its ability to generate complete anaesthesia (scale: 1) in 50% of the embryos at a given concentration (EC50).\nThe EC50 values are calculated using GraphPad Prism® software to analyze the log (dose) response curves."}, "TRPV1": {"target": "TRPV1 (Homo sapiens, UniProt Q8NER1)", "sequence (Q8NER1 whole entry, species assumed)": "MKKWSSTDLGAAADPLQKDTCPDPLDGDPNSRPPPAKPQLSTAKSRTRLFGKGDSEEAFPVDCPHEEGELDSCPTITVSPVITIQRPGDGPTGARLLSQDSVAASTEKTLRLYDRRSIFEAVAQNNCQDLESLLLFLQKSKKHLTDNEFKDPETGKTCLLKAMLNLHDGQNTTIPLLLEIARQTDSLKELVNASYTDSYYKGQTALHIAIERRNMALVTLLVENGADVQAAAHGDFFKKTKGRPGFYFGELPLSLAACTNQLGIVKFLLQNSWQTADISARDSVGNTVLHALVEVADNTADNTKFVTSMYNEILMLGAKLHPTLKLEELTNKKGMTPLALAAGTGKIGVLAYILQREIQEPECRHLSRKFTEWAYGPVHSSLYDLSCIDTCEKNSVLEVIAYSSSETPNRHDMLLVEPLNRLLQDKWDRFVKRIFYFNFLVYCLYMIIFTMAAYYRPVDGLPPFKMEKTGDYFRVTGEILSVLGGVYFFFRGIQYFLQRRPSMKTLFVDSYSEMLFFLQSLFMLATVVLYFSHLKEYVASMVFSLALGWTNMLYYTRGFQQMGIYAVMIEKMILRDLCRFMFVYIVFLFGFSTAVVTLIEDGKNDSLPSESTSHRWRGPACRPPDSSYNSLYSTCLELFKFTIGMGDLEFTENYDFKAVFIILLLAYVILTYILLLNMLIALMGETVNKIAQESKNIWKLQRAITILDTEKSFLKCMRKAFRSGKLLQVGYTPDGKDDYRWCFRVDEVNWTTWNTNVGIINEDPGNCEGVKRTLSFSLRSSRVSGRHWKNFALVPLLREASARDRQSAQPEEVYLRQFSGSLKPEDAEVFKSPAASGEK", "test": "TRPV1 assay, calcium imaging", "format": "cell-based", "conditions": "Ca2+ imaging (Fura-2-AM) after stimulation with 1 μM capsaicin", "method": "Briefly, cells are seeded into poly-L-lysine-coated, glass-bottom, 24-well plates (1×10^5 cells/well) and incubated overnight under standard culture conditions to achieve the desired confluency. Culture media is removed and cells washed twice with HBS prior to incubation for 15 to 60 min at 37° C. with a labelling mixture comprised of Fura-2-AM and pluronic acid in HBS. Data collection occurs over an eight minute period and follows the same general sequence. Following loading, cells are stimulated by addition of 1 μM of capsaicin agonist for 2 min, after which a concentration series of the test sample (e.g., (0.5, 5, 10, 50 μg/ml) is added and imaging continued for an additional 5 min. Capsazepine (20 μM) serves as a known reference antagonist, while cells that are mock-treated or receive vehicle (e.g., DMSO) alone serve as negative controls. For imaging, plates are placed on the stage of an inverted epifluorescence microscope (e.g. Axiovert 200, Zeiss) equipped with a CCD digital camera (e.g., Axiocam MRm, Zeiss). For each well of the plate, a sequence of image pairs (excitation at 340 nm and 380 nm) are collected to capture intracellular calcium flux. Image sequences are analyzed in Image) (NIH) and average pixel intensities calculated for six representative cells in each test condition to achieve mean fluorescence."}}, "data": [{"smiles": "CNC(=O)C=C(C)CCC=C(C)C", "note": "[NQ 2980, N,3,7-trimethylocta-2,6-dienamide]", "values": [{"measurement": "IC50", "setting": "[1]", "value": "100 to 1000", "unit": "µM"}, {"measurement": "EC50", "setting": "zebrafish embryos", "value": 187, "unit": "µM"}, {"measurement": "IC50", "setting": "TRPV1", "value": "> 552", "unit": "µM"}]}]}
